# Laboratory results as given in patent US20240182503A1, “MACROCYCLE COMPLEMENT FACTOR B INHIBITORS” (priority 2021, published 2024).
# Target: CVF-Bb complex (Homo sapiens (Human), UniProt P00751)
# Assay: biochemical
# Type: biochemical
# Conditions: not given
# Method: CVF-Bb complex, prepared from purified cobra venom factor, (3 nM) is incubated with a compound of the disclosure at various concentrations for 10 minutes at room temperature in PBS (pH 7.4) containing 10 mM MgCl2 and 0.05% (w/v) CHAPS. Human Complement C3 substrate is added to a final concentration of 1 μM. After 1 hour incubation at room temperature, the enzyme reaction is stopped by addition of a cocktail of concentrated pan-protease inhibitors. The product of the reaction, C3a, is quantified by means of an enzyme-linked-immunosorbent assay and/or denaturing gel electrophoresis (SDS-PAGE). IC50 values are calculated from percentage of inhibition of CVF-Bb activity as a function of test compound concentration.
row,Compound,IC50 [nM]
1,COc1cc(C)c2[nH]ccc2c1CN1CC[C@H]2C[C@H]1c1ccc(C(=O)NS(=O)(=O)C3(C)CC3)cc1OCCCCCCO2 [Ex. 46],311
2,"CCO[C@H]1CCN2Cc3c(cc(C)c4[nH]ccc34)OCCCCCCCCOc3cc(C(=O)O)ccc3[C@@H]2C1 [Ex. 30, (19bS,21S)-21-ethoxy-4-methyl-7,8,9,10,11,12,13,14,19b,20,21,22,23,25-tetradecahydro-3H-benzo[7,8]pyrido[1′,2′:5,6][1,9,5]dioxaazacyclo-heptadecino[3,2-e]indole-1^7-carboxylic acid]",4910
3,"Cc1cc2c(c3cc[nH]c13)CN1CC[C@@H](C[C@H]1c1ccc(C(=O)O)cc1)OCCCCCCCCO2 [Ex. 35, 4-((3^2R,3^4R)-1^7-methyl-11H-4,13-dioxa-1(4,5)-indola-3(1,4)-piperidinacyclotridecaphane-3^2-yl)benzoic acid]",> 10000
4,"COc1cc(C)c2[nH]ccc2c1CN1CC[C@H]2C[C@H]1c1ccc(C(=O)NS(C)(=O)=O)cc1OCCCCCCO2 [Ex. 33, (1^2S,1^4S)-1^1-((5-methoxy-7-methyl-1H-indol-4-yl)methyl)-N-(methylsulfonyl)-3,10-dioxa-1(2,4)-piperidina-2(1,2)-benzenacyclodecaphane-2^4-carboxamide]",96
5,"Cc1cc2c(c3cc[nH]c13)CN1CC[C@@H](C[C@H]1c1ccc(C(=O)O)cc1)OCCCCCCCO2 [Ex. 25, 4-((3^2R,3^4R)-1^7-methyl-1^1H-4,12-dioxa-1(4,5)-indola-3(1,4)-piperidinacyclododecaphane-3^2-yl)benzoic acid]",> 10000
6,"COc1cc(C)c2[nH]ccc2c1CN1CC[C@H]2C[C@H]1c1ccc(C(=O)O)cc1/C=C/CCCCCO2 [Ex. 36, (1^2R,1^4R,E)-1^1-((5-methoxy-7-methyl-1H-indol-4-yl)methyl)-10-oxa-1(2,4)-piperidina-2(1,2)-benzenacyclodecaphan-3-ene-2^4-carboxylic acid]",241
7,"COc1cc(C)c2[nH]ccc2c1CN1CC[C@H]2C[C@H]1c1ccc(C(=O)O)cc1/C=C/CCCCCCO2 [Ex. 38, (1^2R,1^4R,E)-11-((5-methoxy-7-methyl-1H-indol-4-yl)methyl)-1^1-oxa-1(2,4)-piperidina-2(1,2)-benzenacycloundecaphan-3-ene-2^4-carboxylic acid]",160
8,"COc1cc(C)c2[nH]ccc2c1CN1CC[C@H]2C[C@H]1c1ccc(C(=O)O)cc1CCCCCCCCO2 [Ex. 41, (1^2R,1^4R)-1^1-((5-methoxy-7-methyl-1H-indol-4-yl)methyl)-11-oxa-1(2,4)-piperidina-2(1,2)-benzenacycloundecaphane-2^4-carboxylic acid]",129
9,"CCO[C@H]1CCN(Cc2c(OC)cc(C)c3[nH]ccc23)[C@H](c2ccc(C(=O)NS(=O)(=O)CC)cc2)C1 [Ex. 44, 4-((2S,4S)-4-ethoxy-1-((5-methoxy-7-methyl-1H-indol-4-yl)methyl)piperidin-2-yl)-N-(ethylsulfonyl)benzamide]",138
10,"CCO[C@H]1CCN(Cc2c(OC)cc(C)c3[nH]ccc23)[C@H](c2ccc(C(=O)O)cc2OC)C1 [Ex. 3, 4-((2S,4S)-4-ethoxy-1-((5-methoxy-7-methyl-1H-indol-4-yl)methyl)piperidin-2-yl)-3-methoxybenzoic acid]",263
11,"COc1cc(C)c2[nH]ccc2c1CN1CC[C@H]2C[C@H]1c1ccc(C(=O)O)cc1/C=C\CCCCCO2 [Ex. 37, (1^2R,1^4R,Z)-1^1-((5-methoxy-7-methyl-1H-indol-4-yl)methyl)-10-oxa-1(2,4)-piperidina-2(1,2)-benzenacyclodecaphan-3-ene-2^4-carboxylic acid]",263

# Same assay, conditions: inhibition of CVF-Bb activity (3 nM CVF-Bb, Human Complement C3 substrate 1 μM, C3a quantified), PBS pH 7.4; read-out: IC50
row,Compound,IC50 [nM]
1,"COc1cc(C)c2[nH]ccc2c1CN1CC[C@H]2C[C@H]1c1ccc(C(=O)NS(C)(=O)=O)c3ccc(cc13)OCCC/C=C/CO2 [Ex. 54, (1^2S,1^4S,E)-1^1-((5-methoxy-7-methyl-1H-indol-4-yl)methyl)-N-(methylsulfonyl)-3,10-dioxa-1(2,4)-piperidina-2(1,7)-naphthalenacyclodecaphan-7-ene-2^4-carboxamide]",303

# Same assay, conditions: read-out: IC50
row,Compound,IC50 [nM]
1,"COc1cc(C)c2[nH]ccc2c1CN1CC[C@H]2C[C@H]1c1ccc(C(=O)NS(C)(=O)=O)cc1CCCCCCCO2 [Ex. 71, (1^2S,1^4S)-1^1-((5-methoxy-7-methyl-1H-indol-4-yl)methyl)-N-(methylsulfonyl)-10-oxa-1(2,4)-piperidina-2(1,2)-benzenacyclodecaphane-2^4-carboxamide]",258
2,"COc1cc(C)c2c(ccn2C(=O)OC(C)(C)C)c1CN1CC[C@@H]2C[C@@H]1c1ccc(C(=O)O)c3ccc(cc13)OCCC/C=C/CO2 [Ex. 51, (1^2R,1^4R,E)-1^1-((1-(tert-butoxycarbonyl)-5-methoxy-7-methyl-1H-indol-4-yl)methyl)-3,10-dioxa-1(2,4)-piperidina-2(1,7)-naphthalenacyclodecaphan-7-ene-2^4-carboxylic acid]",> 10000
3,"COc1cc(C)c2[nH]ccc2c1CN1CC[C@H]2C[C@H]1c1ccc(C(=O)NO)cc1OCCCCCCO2 [Ex. 63, (1^2S,1^4S)—N-hydroxy-1^1-((5-methoxy-7-methyl-1H-indol-4-yl)methyl)-3,10-dioxa-1(2,4)-piperidina-2(1,2)-benzenacyclodecaphane-2^4-carboxamide]",2450
4,"COc1cc(C)c2[nH]ccc2c1CN1CC[C@H]2C[C@H]1c1ccc(C(=O)NS(C)(=O)=O)cc1/C=C/CCCCCCO2 [Ex. 58, (1^2S,1^4S, E)-1^1-((5-methoxy-7-methyl-1H-indol-4-yl)methyl)-N-(methylsulfonyl)-11-oxa-1(2,4)-piperidina-2(1,2)-benzenacycloundecaphan-3-ene-2^4-carboxamide]",1060
5,"COc1cc(C)c2[nH]ccc2c1CN1CC[C@H]2C[C@H]1c1ccc(C(=O)O)cc1OCCCn1cc(nn1)CO2 [Ex. 13, (2^2S,2^4S,Z)-2^1-((5-methoxy-7-methyl-1H-indol-4-yl)methyl)-5′H-3,9-dioxa-2(2,4)-piperidina-5(4,1)-triazola-1(1,2)-benzenacyclononaphane-1^4-carboxylic acid]",1110
6,"COc1cc(C)c2[nH]ccc2c1CN1CC[C@H]2C[C@H]1c1ccc(C(=O)NS(=O)(=O)C3CC3)cc1OCCCCCCO2 [Ex. 50, (12S,14S)—N-(cyclopropylsulfonyl)-11-((5-methoxy-7-methyl-1H-indol-4-yl)methyl)-3,10-dioxa-1(2,4)-piperidina-2(1,2)-benzenacyclodecaphane-24-carboxamide]",> 10000
7,"COc1cc(C)c2[nH]ccc2c1CN1CC[C@H]2C[C@H]1c1ccc(C(=O)NS(=O)(=O)C3CC3)cc1OCCCCCO2 [Ex. 60, (1^2S,1^4S)—N-(cyclopropylsulfonyl)-1^1-((5-methoxy-7-methyl-1H-indol-4-yl)methyl)-3,9-dioxa-1(2,4)-piperidina-2(1,2)-benzenacyclononaphane-2^4-carboxamide]",231
8,"COc1cc(C)c2[nH]ccc2c1CN1CC[C@H]2C[C@H]1c1ccc(-c3nnn[nH]3)cc1OCCCCCCO2 [Ex. 74, (1^2S,1^4S)-1^1-((5-methoxy-7-methyl-1H-indol-4-yl)methyl)-2^4-(1H-tetrazol-5-yl)-3,10-dioxa-1(2,4)-piperidina-2(1,2)-benzenacyclodecaphane]",1250
9,"COc1cc(C)c2[nH]ccc2c1CN1CC[C@H]2C[C@H]1c1ccc(C(=O)NS(C)(=O)=O)cc1/C=C/CCCCCO2 [Ex. 69, (1^2S,1^4S,E)-1^1-((5-methoxy-7-methyl-1H-indol-4-yl)methyl)-N-(methylsulfonyl)-10-oxa-1(2,4)-piperidina-2(1,2)-benzenacyclodecaphan-3-ene-2^4-carboxamide]",581
10,"COc1cc(C)c2[nH]ccc2c1CN1CCC2CC1c1ccc(C(=O)O)c3ccc(cc13)OCCCCCCO2 (stereo not drawn) [Ex. 52, (1^2R,1^4R)-1^1-((5-methoxy-7-methyl-1H-indol-4-yl)methyl)-3,10-dioxa-1(2,4)-piperidina-2(1,7)-naphthalenacyclodecaphane-2^4-carboxylic acid]",> 10000
11,"COc1cc(C)c2[nH]ccc2c1CN1CC[C@H]2CCCCCCCOc3cc(C(=O)O)ccc3[C@@H]1C2 [Ex. 78, (1^2S,1^4R)-1^1-((5-methoxy-7-methyl-1H-indol-4-yl)methyl)-3-oxa-1(2,4)-piperidina-2(1,2)-benzenacyclodecaphane-2^4-carboxylic acid]",731
12,"COc1cc(C)c2[nH]ccc2c1CN1CC[C@H]2C[C@H]1c1ccc(-c3ccn[nH]3)cc1OCCCCCCO2 [Ex. 55, (1^2S,1^4S)-1^1-((5-methoxy-7-methyl-1H-indol-4-yl)methyl)-2^4-(1H-pyrazol-5-yl)-3,10-dioxa-1(2,4)-piperidina-2(1,2)-benzenacyclodecaphane]",2890
13,"COc1cc(C)c2[nH]ccc2c1CN1CC[C@H]2C[C@H]1c1ccc(C(=O)O)cc1CCCCCCCCCO2 [Ex. 72, (1^2S,1^4S)-1^1-((5-methoxy-7-methyl-1H-indol-4-yl)methyl)-12-oxa-1(2,4)-piperidina-2(1,2)-benzenacyclododecaphane-2^4-carboxylic acid]",129
14,"CNS(=O)(=O)c1ccc2c(c1)OCCCCCCO[C@H]1CCN(Cc3c(OC)cc(C)c4[nH]ccc34)[C@H]2C1 [Ex. 79, (1^2S,1^4S)-1^1-((5-methoxy-7-methyl-1H-indol-4-yl)methyl)-N-methyl-3,10-dioxa-1(2,4)-piperidina-2(1,2)-benzenacyclodecaphane-2^4-sulfonamide]",> 10000
15,"COc1cc(C)c2[nH]ccc2c1CN1CCC2CC1c1ccc(C(=O)O)cc1OCCCCCCO2 (stereo not drawn) [Ex. 5, (1^2S,1^4S)-11-((5-methoxy-7-methyl-1H-indol-4-yl)methyl)-3,10-dioxa-1(2,4)-piperidina-2(1,2)-benzenacyclodecaphane-2^4-carboxylic acid]",262
